Assay results published in patent US20130065792A1, “INDUCIBLE EXPRESSION OF SGLT5, METHODS AND KITS USING THE SAME” (BOEHRINGER INGELHEIM INTERNATIONAL GMBH, priority 2011, published 2013).

Key:
Format in all cases: cell-based
[1] = target: T1, SGLT5 (Homo sapiens, UniProt A0PJK1); assay: Time dependent specific uptake of [14C]-monosaccharides by T-Rex 293-hSGLT5 cells (FIG. 3); details: 1 mM monosaccharide, 5-60 min, tetracycline induced T-Rex 293-hSGLT5 cells
T1 construct: expressed in transfected cells; host or cells: T-Rex 293 cells (Invitrogen), stably transfected with pT-Rex-Dest30-hSGLT5; expression induced with tetracycline; deposited clone DSM ACC3096
T1 sequence (A0PJK1 1-596): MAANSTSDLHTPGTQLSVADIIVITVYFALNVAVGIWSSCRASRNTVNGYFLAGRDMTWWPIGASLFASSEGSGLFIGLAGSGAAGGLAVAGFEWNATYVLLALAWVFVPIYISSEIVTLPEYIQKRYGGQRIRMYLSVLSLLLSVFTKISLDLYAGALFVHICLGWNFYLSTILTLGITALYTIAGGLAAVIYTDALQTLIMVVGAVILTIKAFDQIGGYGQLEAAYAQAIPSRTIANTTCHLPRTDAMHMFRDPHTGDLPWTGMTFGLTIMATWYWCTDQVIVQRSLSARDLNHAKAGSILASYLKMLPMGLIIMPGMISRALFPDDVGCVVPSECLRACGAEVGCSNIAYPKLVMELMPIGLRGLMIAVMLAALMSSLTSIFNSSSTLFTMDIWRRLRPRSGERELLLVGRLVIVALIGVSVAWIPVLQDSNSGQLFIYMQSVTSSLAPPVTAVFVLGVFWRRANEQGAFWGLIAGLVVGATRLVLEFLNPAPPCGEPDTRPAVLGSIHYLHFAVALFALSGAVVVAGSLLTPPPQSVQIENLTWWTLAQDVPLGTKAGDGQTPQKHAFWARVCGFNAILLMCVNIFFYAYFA
Procedure: [^14C]-saccharide uptake experiments: 30000 cells per well were seeded in white poly-D-lysine-coated 96-well plates and incubated over night. The expression of hSGLT5 was induced 24 h before the start of uptake experiments by the addition of 1 μg/ml tetracycline to the cells. For the assay, cells were washed twice with 250 μl pre-treatment buffer [140 mM cholinchloride in basal buffer (10 mM HEPES; 5.4 mM KCl; 2.8 mM CaCl2*2 H2O; 1.2 mM MgSO4*7 H2O; 0.1% BSA, pH 7.4) and incubated in 200 μl pre-treatment buffer for 25 min at 37° C. Pre-treatment buffer was removed and 200 μl uptake buffer was added to the cells (140 mM NaCl in basal buffer containing 1 mM cold monosaccharide [either glucose, fructose, mannose, galactose or alphamethyl glucopyranoside (AMG), respectively]+0,6 μCi [^14C]-labelled monosaccharide [either glucose, fructose, mannose, galactose or alpha-methyl glucopyranoside (AMG), respectively] (Hartmann Analytics, Mannheim, Germany) and 10 μM Cytochalasin B. After incubation for 5, 10, 30 and 60 minutes at 37° C., the cells were washed three times with 300 μl PBS (Cambrex, Verviers, Belgium) and then lysed in 0.1 N NaOH with intermittent shaking for 5 min. The lysate was mixed with 200 μl MikroScint 40 Scintillator, shaken for 15 min and counted for radioactivity in the TopCount NXT (Canberra Packard, Schwadorf, Austria). Specific sugar uptake was determined by subtracting non-specific uptake of each sugar (in the presence of choline chloride) from total uptake of the same sugar (in the presence of sodium chloride).
Furthermore, a protocol was established to measure the specific uptake of monosaccharides e.g. mannose, fructose, glucose, AMG and galactose by hSGLT5, It could be shown that the transporter takes up mannose and fructose with high affinity and hardly transports glucose, AMG and galactose (FIG. 3). […] Specific uptake was calculated by subtracting the respective monosaccharide uptake in the presence of choline chloride from the total uptake of the same monosaccharide in the presence of sodium chloride.

[2] = target: T1, SGLT5; assay: FLIPR membrane potential assay in HEK/293 cells constitutively expressing SGLT5 (Reference Example); details: constitutive expression; results later called unreliable and irreproducible
Procedure: FLIPR assay: Changes in membrane potential can be assayed using the FLIPR TETRA Assay (Molecular Devices). In this method cells are loaded with a fluorescent dye, which emits light of a different wavelength dependent on the membrane potential. This can be recorded in suitable cell culturing plates and monitored over time in the presence/absence of a test substance.
10.000 to 30.000 cells were seeded in a 384 well plate (black, lysine coated with transparent bottom, Becton Dickinson) and were incubated over night at 37° C. and 5% CO2. The next day they were washed twice with 50 μl assay buffer (140 mM NaCl; 1.26 mM CaCl2; 0.49 mM MgCl2*6 H2O; 0.41 mM MgSO4*7 H2O; 5.33 mM KCl; 0.44 mM KH2PO4−pH =7.4). […]
After starting the measurement ten sample points were assayed at intervals of 3 seconds. Thereafter […] of the dissolved test substances (e.g. monosaccharide and/or KCl) were added and 30 measurements were recorded in 3-second intervals, thereafter 16 measurements were recorded in 15-second intervals. […]
Cells showing strong expression by PCR were subcloned and propagated. […] According to the fluorescence signal induced by KCl a number of 30,000 cells/well was determined to provide the highest fluorescence signal. […] Thereafter cells were exposed to glucose, galactose, fructose, AMG or mannose in different concentrations and changes in fluorescence were recorded as described in Example 1. […]

[3] = target: T1, SGLT5; assay: Uptake of C14-labeled galactose in HEK/293 cells constitutively expressing SGLT5 (Reference Example); details: galactose 0.1 mM; constitutive expression; called unreliable
Procedure: [^14C]-saccharide uptake experiments: 30000 cells per well were seeded in white poly-D-lysine-coated 96-well plates and incubated over night. The expression of hSGLT5 was induced 24 h before the start of uptake experiments by the addition of 1 μg/ml tetracycline to the cells. For the assay, cells were washed twice with 250 μl pre-treatment buffer [140 mM cholinchloride in basal buffer (10 mM HEPES; 5.4 mM KCl; 2.8 mM CaCl2*2 H2O; 1.2 mM MgSO4*7 H2O; 0.1% BSA, pH 7.4) and incubated in 200 μl pre-treatment buffer for 25 min at 37° C. […] The lysate was mixed with 200 μl MikroScint 40 Scintillator, shaken for 15 min and counted for radioactivity in the TopCount NXT (Canberra Packard, Schwadorf, Austria). Specific sugar uptake was determined by subtracting non-specific uptake of each sugar (in the presence of choline chloride) from total uptake of the same sugar (in the presence of sodium chloride). […]

[4] = target: T1, SGLT5; assay: Competitive assay to inhibit C14-labeled AMG uptake into transfected HEK cells (Reference Example); details: constitutive expression; called unreliable
Procedure: SGLT5 was cloned as described in Example 1. However, instead of using the inducible pT-Rex-Dest30 plasmid the sequence was inserted into the expression plasmid pcDNA3.1/V5-His for constitutive expression. Using lipofection HEK/293 cells (ATCC) were stably transfected. The expression plasmid contained resistance to geneticin as a selection marker. The cells were cultivated in DMEM with 10% FCS and […] geneticin for selecting transfected cells. Expression was tested by RT-PCR.
Furthermore, cells were tested for uptake of C^14-labeled galactose in an assay as described in Example 1. […] In addition, a competitive assay to inhibit C^14-labeled AMG uptake into the transfected HEK cells was performed.

O=C[C@H](O)[C@@H](O)[C@@H](O)[C@H](O)CO [galactose]
specific uptake / affinity for hSGLT5 (in words) [1]: very low affinity
signal for depolarisation (FLIPR, in words) [2]: strongest signal for depolarisation
uptake signal relative to the negative control (absolute cpm) [3]: approximately 3 fold
inhibitory effect on C14-labeled AMG uptake (in words) [4]: highest inhibitory effect
